Reference: patent publication EP4635500A1, “THERAPEUTIC AGENT FOR BACTERIAL INFECTION” (Sumitomo Pharma Co., Ltd., priority 2022, dated 2024)
Converted amounts (≈) assume the structure as drawn. Read-outs that look alike come from different tables or passages of the source.

Columns and labels:
Format in all cases: cell-based
[1] = test system: Providencia rettgeri; experiment: MIC, broth microdilution, standard strains and Japanese clinical isolates (Example 5, Table 4); details: ATCCBAA2525; KUB4010 Providencia rettgeri ATCC BAA-2525, OXA-181
[2] = test system: Escherichia coli; experiment: as above; details: ATCCBAA2452; KUB4005 Escherichia coli ATCC BAA-2452, NDM-1
[3] = test system: Metallo-β-lactamase producing strains (N = 27); experiment: MIC50/MIC90 for carbapenemase-producing isolates (Example 5, Table 6); set-up: MIC50: unit not given here; details: for MIC90: metallo-β-lactamase-producing strains, combination: Compound A at a fixed concentration of 4 µg/mL
[4] = test system: Gram-positive bacteria; experiment: MIC, agar dilution, anaerobic bacteria (Example 9, Tables 21, 26)
[5] = test system: Prevotella spp.; experiment: MIC, agar dilution, anaerobic bacteria (Example 9, Tables 18, 23); details: for MIC: (n)=Compound A µg/mL, 0=Compound A alone antibacterial
[6] = test system: Porphyromonas spp.; experiment: MIC, agar dilution, anaerobic bacteria (Example 9, Tables 19, 24); details: for MIC: (n)=Compound A µg/mL, 0=Compound A alone antibacterial

C[C@H]1[C@H](NC(=O)/C(=N\OC(C)(C)C(=O)O)c2csc(N)n2)C(=O)N1S(=O)(=O)O [Aztreonam, aztreonam]
MIC [1]: 1 µg/mL (≈ 2.3 µM)
MIC [2]: 4 µg/mL (≈ 9.19 µM)

CN(C)c1cc(NC(=O)CNC(C)(C)C)c(O)c2c1C[C@H]1C[C@H]3[C@H](N(C)C)C(O)=C(C(N)=O)C(=O)[C@@]3(O)C(O)=C1C2=O [Tigecycline, tigecycline]
MIC90 ([3]; read-out: MIC90): 4 µg/mL

colistin
MIC50 ([3]; Metallo-β-lactamase (N = 27): IMP-1 (12), IMP-6 (3), IMP-34 (1), NDM-1 (8), NDM-6 (1), VIM-1 (2)): 0.25
MIC90 [3]: 1 µg/mL

Cc1ncc([N+](=O)[O-])n1CCO [Metronidazole]
MIC ([4]; ATCC43255, KUB No. 3518 Clostridioides difficile ATCC 43255, read-out: MIC): 0.5 µg/mL (≈ 2.92 µM)
MIC ([4]; ATCC700057, KUB No. 2978 Clostridioides difficile ATCC 700057, read-out: MIC): 0.5 µg/mL (≈ 2.92 µM)
MIC ([4]; ATCCBAA1803, KUB No. 3511 Clostridioides difficile ATCC BAA-1803, read-out: MIC): 1 µg/mL (≈ 5.84 µM)
MIC ([4]; ATCCBAA1870, KUB No. 3385 Clostridioides difficile ATCC BAA-1870, read-out: MIC): 0.5 µg/mL (≈ 2.92 µM)
MIC ([4]; Cutibacterium acnes, ATCC11827): > 64 µg/mL
MIC ([4]; Finegoldia magna, ATCC29328): 1 µg/mL (≈ 5.84 µM)
MIC50 ([4]; Gram-positive bacteria, read-out: MIC50): 0.5 µg/mL (≈ 2.92 µM)
MIC90 ([4]; Gram-positive bacteria, read-out: MIC90): 2 µg/mL (≈ 11.7 µM)
MIC ([4]; KUB No. 3013 Bulleidia extructa, read-out: MIC): 2 µg/mL (≈ 11.7 µM)
MIC ([4]; KUB No. 3014 Atropobium rimae, read-out: MIC): 2 µg/mL (≈ 11.7 µM)
MIC ([4]; Olsenella uli): 2 µg/mL (≈ 11.7 µM)
MIC ([4]; Peptoniphilus asaccharolyticus, ATCC14963): 0.5 µg/mL (≈ 2.92 µM)
MIC ([4]; Peptoniphilus indolicus): 0.25 µg/mL (≈ 1.46 µM)
MIC ([4]; Peptostreptococcus anaerobius): 0.5 µg/mL (≈ 2.92 µM)
MIC ([4]; Schaalia odontolytica, ATCC17929, KUB No. 3488 Actinomyces odontolyticus ATCC 17929, read-out: MIC): 32 µg/mL (≈ 187 µM)
MIC ([5]; KUB No. 2989 Prevotella histicola): 0.5 µg/mL (≈ 2.92 µM)
MIC ([5]; KUB No. 2991 Prevotella intermedia): 0.5 µg/mL (≈ 2.92 µM)
MIC ([5]; KUB No. 2992 Prevotella buccae): 1 µg/mL (≈ 5.84 µM)
MIC ([5]; KUB No. 3005 Prevotella melaninogenica): 1 µg/mL (≈ 5.84 µM)
MIC ([5]; KUB No. 6558 Prevotella heparinolytica): 0.25 µg/mL (≈ 1.46 µM)
MIC ([5]; KUB No. 6559 Prevotella intermedia): 2 µg/mL (≈ 11.7 µM)
MIC ([5]; KUB No. 6560 Prevotella nigrescens): 0.5 µg/mL (≈ 2.92 µM)
MIC ([5]; KUB No. 6561 Prevotella melaninogenica): 1 µg/mL (≈ 5.84 µM)
MIC ([5]; KUB No. 6563 Prevotella nigrescens): 0.5 µg/mL (≈ 2.92 µM)
MIC ([5]; KUB No. 6564 Prevotella buccae): 2 µg/mL (≈ 11.7 µM)
MIC ([5]; KUB No. 6565 Prevotella nigrescens): 0.5 µg/mL (≈ 2.92 µM)
MIC ([5]; KUB No. 6567 Prevotella melaninogenica): 0.5 µg/mL (≈ 2.92 µM)
MIC ([5]; KUB No. 6568 Prevotella intermedia): 1 µg/mL (≈ 5.84 µM)
MIC ([5]; KUB No. 6569 Prevotella nanceiensis): 2 µg/mL (≈ 11.7 µM)
MIC ([5]; KUB No. 6570 Prevotella intermedia): 2 µg/mL (≈ 11.7 µM)
MIC ([5]; KUB No. 6571 Prevotella denticola): 0.25 µg/mL (≈ 1.46 µM)
MIC ([5]; KUB No. 6572 Prevotella melaninogenica): 0.5 µg/mL (≈ 2.92 µM)
MIC ([5]; KUB No. 6574 Prevotella oris): 0.5 µg/mL (≈ 2.92 µM)
MIC ([5]; KUB No. 6575 Prevotella nigrescens): 1 µg/mL (≈ 5.84 µM)
MIC ([5]; KUB No. 6576 Prevotella intermedia): 0.25 µg/mL (≈ 1.46 µM)
MIC ([5]; KUB No. 6579 Prevotella pallens): 0.5 µg/mL (≈ 2.92 µM)
MIC ([5]; KUB No. 6581 Prevotella intermedia): 2 µg/mL (≈ 11.7 µM)
MIC ([5]; KUB No. 6582 Prevotella melaninogenica): 0.5 µg/mL (≈ 2.92 µM)
MIC ([5]; KUB No. 6585 Prevotella baroniae): 1 µg/mL (≈ 5.84 µM)
MIC ([5]; KUB No. 6587 Prevotella melaninogenica): ≤ 0.12 µg/mL
MIC ([5]; KUB No. 6588 Prevotella nigrescens): 0.5 µg/mL (≈ 2.92 µM)
MIC ([5]; KUB No. 6589 Prevotella buccae): 0.5 µg/mL (≈ 2.92 µM)
MIC ([5]; KUB No. 6590 Prevotella buccae): 0.5 µg/mL (≈ 2.92 µM)
MIC ([5]; KUB No. 6591 Prevotella intermedia): 0.5 µg/mL (≈ 2.92 µM)
MIC ([5]; KUB No. 6592 Prevotella jejuni): 0.5 µg/mL (≈ 2.92 µM)
MIC ([5]; KUB No. 6600 Prevotella intermedia): 0.5 µg/mL (≈ 2.92 µM)
MIC ([5]; KUB No. 6601 Prevotella melaninogenica): 0.5 µg/mL (≈ 2.92 µM)
MIC ([5]; KUB No. 6603 Prevotella melaninogenica): 0.25 µg/mL (≈ 1.46 µM)
MIC ([5]; KUB No. 6609 Prevotella buccae): 0.5 µg/mL (≈ 2.92 µM)
MIC ([5]; KUB No. 6611 Prevotella nigrescens): 1 µg/mL (≈ 5.84 µM)
MIC ([5]; KUB No. 6612 Prevotella oris): 0.5 µg/mL (≈ 2.92 µM)
MIC ([5]; KUB No. 6613 Prevotella buccae): 0.5 µg/mL (≈ 2.92 µM)
MIC ([5]; KUB No. 6614 Prevotella intermedia): 1 µg/mL (≈ 5.84 µM)
MIC ([5]; KUB No. 6615 Prevotella buccae): 1 µg/mL (≈ 5.84 µM)
MIC ([5]; KUB No. 6617 Prevotella buccae): 2 µg/mL (≈ 11.7 µM)
MIC ([5]; KUB No. 6618 Prevotella melaninogenica): 0.25 µg/mL (≈ 1.46 µM)
MIC ([5]; KUB No. 6622 Prevotella loescheii): 1 µg/mL (≈ 5.84 µM)
MIC ([5]; KUB No. 6623 Prevotella nigrescens): 1 µg/mL (≈ 5.84 µM)
MIC ([5]; KUB No. 6625 Prevotella melaninogenica): 0.5 µg/mL (≈ 2.92 µM)
MIC ([5]; KUB No. 6626 Prevotella loescheii): 1 µg/mL (≈ 5.84 µM)
MIC ([5]; KUB No. 6629 Prevotella bivia): 8 µg/mL (≈ 46.7 µM)
MIC ([5]; KUB No. 6630 Prevotella nigrescens): 0.5 µg/mL (≈ 2.92 µM)
MIC ([5]; KUB No. 6631 Prevotella jejuni): 0.5 µg/mL (≈ 2.92 µM)
MICrange ([5]; Prevotella spp.): ≤0.12 to 8 µg/mL
MIC50 ([5]; Prevotella spp., read-out: MIC50): 0.5 µg/mL (≈ 2.92 µM)
MIC90 ([5]; Prevotella spp., read-out: MIC90): 2 µg/mL (≈ 11.7 µM)
MIC ([5]; Prevotella, KUB No. 6583 Prevotella nonceiensis): 2 µg/mL (≈ 11.7 µM)
MIC ([5]; Prevotella, KUB No. 6604 Prevotella nonceiensis): 1 µg/mL (≈ 5.84 µM)
MIC ([5]; po, KUB No. 6566 Prevotella oralis): 0.25 µg/mL (≈ 1.46 µM)
MIC ([6]; KUB No. 6663 Porphyromonas gingivalis): ≤ 0.12 µg/mL
MIC ([6]; KUB No. 6666 Porphyromonas gingivalis): ≤ 0.12 µg/mL
MIC ([6]; KUB No. 6667 Porphyromonas gingivalis): ≤ 0.12 µg/mL
MIC ([6]; KUB No. 6668 Porphyromonas gingivalis): ≤ 0.12 µg/mL
MIC ([6]; KUB No. 6669 Porphyromonas gingivalis): ≤ 0.12 µg/mL
MIC ([6]; KUB No. 6670 Porphyromonas gingivalis): ≤ 0.12 µg/mL
MIC ([6]; KUB No. 6671 Porphyromonas gingivalis): ≤ 0.12 µg/mL
MIC ([6]; KUB No. 6672 Porphyromonas gingivalis): ≤ 0.12 µg/mL
MIC ([6]; KUB No. 6673 Porphyromonas gingivalis): ≤ 0.12 µg/mL
MIC ([6]; KUB No. 6674 Porphyromonas gingivalis): ≤ 0.12 µg/mL
MIC ([6]; KUB No. 6676 Porphyromonas gingivalis): ≤ 0.12 µg/mL
MIC ([6]; KUB No. 6677 Porphyromonas gingivalis): ≤ 0.12 µg/mL
MIC ([6]; KUB No. 6678 Porphyromonas gingivalis): ≤ 0.12 µg/mL
MIC ([6]; KUB No. 6679 Porphyromonas gingivalis): ≤ 0.12 µg/mL
MIC ([6]; KUB No. 6680 Porphyromonas gingivalis): ≤ 0.12 µg/mL
MIC ([6]; KUB No. 6681 Porphyromonas gingivalis): ≤ 0.12 µg/mL
MIC ([6]; KUB No. 6682 Porphyromonas gingivalis): ≤ 0.12 µg/mL
MIC ([6]; KUB No. 6683 Porphyromonas gingivalis): ≤ 0.12 µg/mL
MIC ([6]; KUB No. 6684 Porphyromonas gingivalis): ≤ 0.12 µg/mL
MIC ([6]; KUB No. 6685 Porphyromonas gingivalis): ≤ 0.12 µg/mL
MIC ([6]; KUB No. 6686 Porphyromonas gingivalis): ≤ 0.12 µg/mL
MIC ([6]; KUB No. 6687 Porphyromonas gingivalis): ≤ 0.12 µg/mL
MIC ([6]; KUB No. 6688 Porphyromonas gingivalis): ≤ 0.12 µg/mL
MIC ([6]; Porphyromonas, KUB No. 6665 Porphyromonas assaccharolytica): ≤ 0.12 µg/mL
MIC50 ([6]; Porphyromonas, table at the place of Table 24, Prevotella spp., read-out: MIC50): ≤ 0.12 µg/mL
MIC90 ([6]; Porphyromonas, table at the place of Table 24, Prevotella spp., read-out: MIC90): ≤ 0.12 µg/mL
MICrange ([6]; table at the place of Table 24, Prevotella spp.): ≤0.12 µg/mL
